In patent publication US11814352B2, “Salts formed by 2-(1-acyloxy-n-pentyl) benzoic acid and basic amino acid or aminoguanidine, and preparation method and application thereof” (JIANGSU KANION PHARMACEUTICAL CO., LTD., priority 2018, dated 2023):
Values joined by “and” are separate entries in the source; they are usually repeats but may differ in a detail not shown here. Equal values may be shown once. Where a name gives a salt, the structure may show the parent alone. Read-outs that look alike come from different tables or passages of the source. Blank lines part the entries; values can stand above or below the compound they belong to.

What was measured:
[1] = tested on: ADP induced platelet aggregation; test: In vitro anti-platelet aggregation, ADP induced (turbidimetry, PRP); type: cell-based, rabbits
Protocol: (§1) The animals were used for experiments after 1 week.
(§2) The common carotid artery was separated, and a polyethylene tube was inserted into the common carotid artery to collect blood. […] The upper beige suspension was pipetted to obtain the platelet-rich plasma (PRP). […] The PRP was adjusted with the PPP to make the platelet count at 1×10^8/mL.
(§3) 260 μL of platelet-rich plasma (PRP) was added into a turbidimetric tube. Then 10 μL of test compounds with different concentrations, positive control drugs or normal saline were separately added, and the plasma was incubated at 37° C. for 5 min. Then 30 μL of inducers were added in sequence. The final concentration of an inducer ADP is 10 μM, and the final concentration of an inducer AA is 1 mM. […] Inhibition rate of platelet aggregation (IRPA)=(platelet aggregation rate of the control group−platelet aggregation rate of the experimental group)/platelet aggregation rate of the control group×100%.

[2] = literature value; cited from earlier work
[3] = tested on: AA induced platelet aggregation; test: In vitro anti-platelet aggregation, AA induced (turbidimetry, PRP); type: cell-based, rabbits
Protocol: as §1, §2, §3

MCAO rats = test: Cerebral infarction, cerebral edema and nerve function of rats with focal cerebral ischemia (MCAO); type: in vivo, SD rats
Protocol: The total number of the animals was 88.
Sham operation group: equal volume of normal saline (containing 1% DMSO) (iv. 3 days), TTC, cerebral edema and neurological function score (n=8); […]
The middle cerebral arteries of the rats were blocked by a suture-occluded method, and reperfused after 2 h. […] All drugs were formulated into normal saline solutions containing 1% DMSO for administration, and the duration of administration was controlled at approximately 1 min. […] 2 h after the last administration, the neurological defect scores were firstly obtained, and then the rats of each group were sacrificed. The whole brains were taken out and weighed (wet weight), TTC stained, and dried to determine the effects of the compounds on cerebral infarction and cerebral edema.
2 h after the last administration, the neurological defects of the animals were graded and scored by the Longa's method.
After the neurobehavioral examination was completed, four coronal incisions were made on the whole brains of the rats on the optic chiasma and 2 mm anteroposterior positions of the optic chiasma. After the whole brains were cut into five slices, the brain slices were quickly placed in 5 ml of phosphate buffer solution containing 2% TTC, and incubated at 37° C. in the dark. In the incubation process, the brain slices were turned once every 5 min. After 10 min of incubation, the brain slices were taken out and pictures were taken with a digital camera (Olympus C-4000, Japan).
The calculation formula of brain water content is as follows: Water content of brain tissue (%)=(wet weight of brain tissue−dry weight of brain tissue)/wet weight of brain tissue×100%; Cerebral edema rate (%)=water content of brain tissue of each group (%)−water content of brain tissue of sham operation group (%)/water content of brain tissue of sham operation group (%)×100%; Inhibition rate of cerebral edema (%)=(rate of cerebral edema of model group (%)−rate of cerebral edema of administration group (%))/rate of cerebral edema of model group (%)×100%.

[4] = Solubility test (saturated solubility in water); type: physicochemical; conditions: 25±2° C.
Protocol: Test method: 10 mg of a test sample (solid was ground into fine powder) was weighed and added to a certain amount of solvent at 25±2° C. (the temperature of a water bath is controlled at 25° C.), and the solution was shaken vigorously for 30 s every 5 min. The dissolution was observed within 30 min. When there were no visible solute particles or droplets, the test sample was regarded as completely dissolved.

[5] = tested on: arteriovenous bypass thrombosis in rats; test: Effect on arteriovenous bypass thrombosis in rats; type: in vivo, SD rats; conditions: 10 mg/kg/day tail vein 7 days; for Dry weight of thrombus / Wet weight of thrombus: 2 h after last dose; for inhibition at 10 mg/kg/day: Rattus norvegicus, 168 h
Protocol: Male SD rats, weighing 250-280 g, purchased from Beijing Vital River Laboratory Animal Technology Co., Ltd., raised in an SPF breeding environment with indoor temperature controlled at 23±2° C., and allowed to freely eat and drink. The total number of the animals is 64.
Model group: injected with the same volume of normal saline (containing 1% DMSO) through the tail vein, and administered continuously for 7 days. The test was started 2 h after the last dose (n=8).
The dose of all drugs was 10 mg/kg/day. The drugs were formulated into normal saline solutions containing 1% DMSO, and injected through the tail vein for 7 consecutive days. The test was started 2 hours after the last dose (n=8).
The rats were intraperitoneally injected with a 3% pentobarbital sodium solution (30 mg/kg). After anesthesia, the rats were immobilized in the supine position, and a median cervical incision was made to separate the right common carotid artery and left external jugular vein. A 6 cm long suture was put in the middle of a polyethylene tube (the suture needs to be weighed before being put in the tube), and the polyethylene tube was filled with heparin saline (50 U/mL). The polyethylene tube was inserted into the separated blood vessels to make the artery and vein form a loop. After 15 min of circulation of the blood flow, the suture was taken out, and the suture with thrombus was collected and weighed immediately. Then, after the suture was dried at room temperature for 24 h, the dry weight was determined. The total weight minus the weight of the suture was the wet weight of the thrombus, and the dry weight minus the weight of the suture was the dry weight of the thrombus.

[6] = tested on: bleeding time in mice after tail cutting; test: Effect on bleeding time in mice after tail cutting; type: in vivo, Kunming mice; conditions: 5 mg/kg orally once a day for 14 days, 1 h after last dose
Protocol: SPF Kunming mice, weighing 18-22 g, purchased from Beijing Vital River Laboratory Animal Technology Co., Ltd., having a certificate number of SCXK (Beijing) 2010-0002, raised in an SPF animal room with indoor temperature controlled at 23±2° C., and allowed to freely eat and drink. The day and night time was 12 h/12 h.
The administration dose level of the positive drug groups and the test drug groups was 5 mg/kg, and the same amount of normal saline was given to the negative control group. All mice were administered for 14 consecutive days orally once a day. One hour after the last dose, the mice were anesthetized with 1-2% isoflurane, and the tails were cut for 5 mm. The tips of the tails were absorbed dry with filter paper every 30 seconds until the bleeding stopped naturally. Bleeding time is defined as the interval between the start and stop of bleeding.

[7] = Concentration of metabolites in rat brain tissue after intravenous injection of I1s; type: in vivo; conditions: male, Sprague-Dawley, rat, brain, iv, 25 mg/kg; for concentration at 0.5 h: 0.5 h after intravenous injection of I1s; for concentration at 1 h: 1 h after intravenous injection of I1s
[8] = Pharmacokinetics of metabolites in rat plasma after intravenous injection of I1s; type: in vivo, SD male rats; conditions: metabolite in rat plasma after I1s 25 mg/kg tail vein, rats 1-3
Protocol: (§4) 12 clean SD male rats, provided by Qinglongshan Animal Breeding Farm in Jiangning District, Nanjing. The production license number is SCXK (Jiangsu) 2017-0001. The body weight of the rats ranges from 180 to 220 g. The rats were used after being raised in the laboratory of an experimental animal center for 2 days after purchase, fasted for 12 hours before administration and 6 hours after administration, and were allowed to freely drink during the test period.
(§5) The concentration of the original drugs and metabolites in the rat blood were determined by LC-MS/MS, and WinNonlin pharmacokinetics professional software and a statistical moment method were used for calculation to obtain the corresponding pharmacokinetic parameters.

[9] = Concentration of metabolites in rat brain tissue after intravenous injection of I1s; type: in vivo; conditions: for Passage through the blood-brain barrier: detected in rat brain tissue after iv I1s; for concentration at 6 h: male, Sprague-Dawley, rat, brain, iv, 25 mg/kg, read-out: Concentration in brain tissue (single rats)
Protocol: as §4, §5

[10] = read-out: IC50 ADP (10 μM), rabbit PRP, inducer ADP 10 μM, 37° C.
[11] = read-out: IC50 AA (1 mM), rabbit PRP, inducer AA 1 mM, 37° C.
[12] = iv 2 h after the beginning of reperfusion, 5 mg/kg
[13] = iv at the beginning of reperfusion, 5 mg/kg
[14] = MCAO rats, 10 mg/kg/day iv 3 days (combinations equimolar), first dose 2 h after reperfusion
[15] = Oryctolagus cuniculus, Platelet, read-out: IC50 ADP (10 μM), rabbit PRP, inducer ADP 10 μM, 37° C.
[16] = read-out: Concentration in brain tissue (single rats)
[17] = read-out: Concentration in brain tissue, Mean
[18] = 6 h after intravenous injection of I1s
[19] = male, Sprague-Dawley, rat, plasma, iv, 25 mg/kg
[20] = male, Sprague-Dawley, rat, plasma, iv, 25 mg/kg, read-out: AUC(0-t)
[21] = male, Sprague-Dawley, rat, plasma, iv, 25 mg/kg, read-out: Cmax

Compound: CCCCC1OC(=O)c2ccccc21 (racemic) [(R/S)-NBP, racemic (R/S)-3-N-butyl-1(3H)-isobenzofuranone]
- IC50 [1, 10]: 1360 ± 130 µM
- half-life [2]: 0.733 h
- IC50 [3, 11]: 600 ± 70 µM
- Cerebral edema (MCAO rats; [12]): 6.72 ± 4.05%
- Infarct volume (MCAO rats; [12]): 36.50 ± 7.58%
- Inhibition rate of cerebral edema (MCAO rats; [12]): 28.80%
- Inhibition rate of infarct volume (MCAO rats; [12]): 26.43%
- Cerebral edema (MCAO rats; [13]): 5.80 ± 1.83%
- Infarct volume (MCAO rats; [13]): 28.55 ± 8.25%
- Inhibition rate of cerebral edema (MCAO rats; [13]): 40.21%
- Inhibition rate of infarct volume (MCAO rats; [13]): 41.96%

Compound: CCCCC(OC(=O)CCC)c1ccccc1C(=O)O (racemic) (as salt: salt) [I3, L-Arginine (R/S)-2-(1-N-Butyryloxy-n-Pentyl) Benzoate]
- melting point: 152 to 153 °C

Compound: CCCCC(OC(=O)CC)c1ccccc1C(=O)O (racemic) (as salt: salt) [I2, L-Arginine (R/S)-2-(1-Propionyloxy-n-Pentyl) Benzoate]
- melting point: 169 to 171 °C

Compound: CCCCC(O)c1ccccc1C(=O)[O-].[K+] (racemic) [PHPB, Potassium (R/S)-2-(1-hydroxy-n-pentyl) benzoate]
- Saturated solubility in H2O, Mean [4]: 147.07 mg/mL
- Saturated solubility in H2O, dissolved sample amount (single determinations) [4]: 148.30 mg/mL and 148.04 mg/mL and 145.97 mg/mL and 145.98 mg/mL
- IC50 [1, 10]: 960 ± 70 µM
- half-life [2]: 0.75 h
- IC50 [3, 11]: 350 ± 90 µM
- Cerebral edema (MCAO rats; [14]): 10.71 ± 3.55%
- Infarct volume (MCAO rats; [14]): 20.23 ± 3.02%
- Inhibition rate of cerebral edema (MCAO rats; [14]): 33.23%
- Inhibition rate of infarct volume (MCAO rats; [14]): 51.66%
- Dry weight of thrombus [5]: 8.90 ± 0.45
- Wet weight of thrombus [5]: 30.64 ± 10.21
- Inhibition rate (dry weight of thrombus) ([5]; vs model group): 11.32%
- Inhibition rate (wet weight of thrombus) ([5]; vs model group): 15.39%

Compound: CC(=O)Oc1ccccc1C(=O)O [Aspirin]
- Bleeding time [6]: 22.52 ± 1.31 min
- IC50 [1, 15]: 780 ± 50 µM
- IC50 ([3]; Oryctolagus cuniculus, Platelet, read-out: IC50 AA (1 mM), rabbit PRP, inducer AA 1 mM, 37° C.): 160 ± 10 µM
- Dry weight of thrombus [5]: 6.06 ± 0.46
- Wet weight of thrombus [5]: 21.46 ± 1.76
- inhibition at 10 mg/kg/day ([5]; vs model group, read-out: Inhibition rate (dry weight of thrombus)): 39.7%
- inhibition at 10 mg/kg/day ([5]; vs model group, read-out: Inhibition rate (wet weight of thrombus)): 40.7%

- concentration at 0.5 h [7, 16]: 76.8 ng/g
- concentration at 0.5 h [7, 17]: 111 ng/g
- concentration at 1 h [7, 16]: 35.5 ng/g
- concentration at 1 h [7, 17]: 35.9 ng/g
- concentration at 6 h [7, 18]: 31.5 ng/g
- AUC(0-inf) [8, 19]: 624 ng·h/mL
- clearance [8, 19]: 668 mL/min/kg
- AUC(0-t) [8, 20]: 518 ng·h/mL
- Cmax [8, 21]: 737 ng/mL
- AUC(0-t) [8]: 577.8 ng·h/mL and 492.6 ng·h/mL
- AUC(0-∞) [8]: 673.9 ng·h/mL and 858.7 ng·h/mL
- Cl [8]: 618.2922 mL/min/kg and 485.2238 mL/min/kg
- Cmax [8]: 876.5 ng/mL and 569.2 ng/mL
- Concentration in brain tissue (single rats) ([9]; 0.5 h after intravenous injection of I1s): 118.09 ng/g and 137.01 ng/g
- Concentration in brain tissue (single rats) ([9]; 1 h after intravenous injection of I1s): 39.47 ng/g and 32.78 ng/g
- Concentration in brain tissue (single rats) [9, 18]: 31.33 ng/g and 32.14 ng/g
- concentration at 6 h [9, 18]: 31.1 ng/g
Compound: CCCC[C@H](O)c1ccccc1C(=O)O [M3, (S)-2-(1-hydroxy-n-pentyl)benzoic acid]
- Passage through the blood-brain barrier [9]: could all pass through the blood-brain barrier

Compound: CCCC[C@H](OC(C)=O)c1ccccc1C(=O)O [(S)-APB, (S)-2-(1-acetoxy-n-pentyl)benzoic acid]
- IC50 [1, 15]: 790 ± 80 µM
- half-life ([8]; male, Sprague-Dawley, rat, plasma, intravenous, 25 mg/kg): ~3 h
- AUC(0-inf) [8, 19]: 31800 ng·h/mL
- clearance [8, 19]: 13.1 mL/min/kg
- half-life [8, 19]: 2.71 h
- AUC(0-t) [8, 20]: 31700 ng·h/mL
- Cmax [8, 21]: 51400 ng/mL
- AUC(0-t) ([8]; listed as M2): 28614.9 ng·h/mL and 28503.7 ng·h/mL
- AUC(0-∞) ([8]; listed as M2): 28748.5 ng·h/mL and 28703.5 ng·h/mL
- Cl ([8]; listed as M2): 14.494 mL/min/kg and 14.516 mL/min/kg
- Cmax ([8]; listed as M2): 53513.2 ng/mL and 52069.2 ng/mL
- Vz ([8]; listed as M2): 4.1842 L/kg and 4.8584 L/kg
- Passage through the blood-brain barrier [9]: could all pass through the blood-brain barrier
- concentration at 6 h [9, 18]: 26.1 ng/g
- IC50 [3, 11]: 430 ± 50 µM

Compound: COC(=O)[C@H](c1ccccc1Cl)N1CCc2sccc2C1 [Clopidogrel]
- Bleeding time [6]: 25.28 ± 0.48 min
